Data reported in patent US9605004B2, “Chemical compounds” (SYNGENTA LIMITED, priority 2013, dated 2017).

How the values were obtained:
[1] = tested on: a variety of test species; assay: Post-emergence herbicidal activity (Example 8b, Table 3); format: in vivo; settings: application post-emergence, rate 1000 g/ha, evaluated after 13 days, scale 0-5; for Herbicidal damage score, ABUTH: Abutilon theophrasti; for Herbicidal damage score, ALOMY: Alopecurus myosuroides; for Herbicidal damage score, AMARE: Amaranthus retroflexus; for Herbicidal damage score, ECHCG: Echinochloa crus-galli; for Herbicidal damage score, SETFA: Setaria faberi; for Herbicidal damage score, ZEAMX: Zea mays
How it was run: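 Pot-grown seedlings sprayed 8 days after sowing with active ingredient in acetone/water (50:50) plus 0.5% Tween 20. Glasshouse at 24/16 °C day/night, 14 h light, 65% humidity, watered twice daily. Damage scored after 13 days on a 0–5 scale (5 = total damage, 0 = none).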

[2] = tested on: a variety of test species; assay: Pre-emergence herbicidal activity (Example 8a, Table 2); format: in vivo; parameters: key: 0 = no damage to plant, 5 = total damage to plant; settings: application pre-emergence, rate 1000 g/ha, evaluated after 13 days
How it was run: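 Damage was rated 13 days after treatment on a 0–5 scale (0 = no damage, 5 = total damage). Pots of seeds in standard soil were sprayed one day after sowing with an aqueous solution from an acetone/water (50:50), 0.5% Tween 20 formulation and kept at 24/16 °C day/night.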

| SMILES | Herbicidal damage score, ABUTH [1] | Herbicidal damage score, ALOMY [1] | Herbicidal damage score, AMARE [1] | Herbicidal damage score, ECHCG [1] | Herbicidal damage score, SETFA [1] | Herbicidal damage score, ZEAMX [1] | Pre-emergence herbicidal activity, damage score ABUTH [2] | Pre-emergence herbicidal activity, damage score ALOMY [2] | Pre-emergence herbicidal activity, damage score AMARE [2] | Pre-emergence herbicidal activity, damage score ECHCG [2] | Pre-emergence herbicidal activity, damage score SETFA [2] | Pre-emergence herbicidal activity, damage score ZEAMX [2] |
| --- | --- | --- | --- | --- | --- | --- | --- | --- | --- | --- | --- | --- |
| CCC1=C(Cl)C(=O)N(c2ccn(C)n2)C1O (stereo not drawn) [Compound B28] | 0 | 0 | 0 | 0 | 0 | 0 | 0 | 0 | 0 | 0 | 0 | 0 |
| CC1=C(Cl)C(=O)N(c2cc(C#CC(C)C)n(C)n2)C1O (stereo not drawn) [Compound B29] | 0 | 0 | 0 | 2 | 2 | 0 | 0 | 0 | 2 | 0 | 0 | 0 |
| CC1=C(Cl)C(=O)N(c2cc(C#CCC(C)C)n(C)n2)C1O (stereo not drawn) [Compound B30] | 3 | 0 | 3 | 0 | 2 | 0 | 0 | 0 | 2 | 0 | 0 | 0 |
| CCOC(C)(CC)c1cc(N2C(=O)C(Cl)=C(C)C2O)nn1C (stereo not drawn) [Compound B32] | 5 | 5 | 5 | 5 | 5 | 4 | 5 | 4 | 5 | 5 | 5 | 4 |
| CCC(C)c1cc(N2C(=O)C(Cl)=C(C)C2O)nn1C (stereo not drawn) [Compound B33] | 5 | 5 | 5 | 5 | 5 | 5 | 5 | 4 | 5 | 5 | 5 | 4 |
| CC#Cc1cc(N2C(=O)C(Cl)=C(C)C2O)nn1C (stereo not drawn) [Compound B35] | 4 | 1 | 1 | 4 | 4 | 0 | 3 | 1 | 5 | 4 | 3 | 0 |
| CSc1cc(N2C(=O)C(Cl)=C(C)C2O)nn1C (stereo not drawn) [Compound B36] | 5 | 4 | 5 | 5 | 5 | 5 | 5 | 3 | 5 | 5 | 5 | 2 |
| CC1=C(Cl)C(=O)N(c2cc(S(C)(=O)=O)n(C)n2)C1O (stereo not drawn) [Compound B38] | 5 | 5 | 5 | 5 | 5 | 5 | 5 | 4 | 5 | 5 | 5 | 4 |
| CC1=C(Cl)C(=O)N(c2cc(C(C)C(F)(F)F)n(C)n2)C1O (stereo not drawn) [Compound B39] | 5 | 5 | 5 | 5 | 5 | 5 | 5 | 4 | 5 | 5 | 5 | 4 |
| C/C=C\c1cc(N2C(=O)C(Cl)=C(C)C2O)nn1C (stereo not drawn) [Compound B43] | 5 | 4 | 4 | 5 | 5 | 2 | 5 | 2 | 5 | 4 | 4 | 1 |
| C=C(C)c1cc(N2C(=O)C(Cl)=C(C)C2O)nn1C (stereo not drawn) [Compound B45] | 5 | 5 | 5 | 5 | 5 | 4 | 5 | 4 | 5 | 5 | 5 | 3 |
| CC(C)=C(C)c1cc(N2C(=O)C(Cl)=C(C)C2O)nn1C (stereo not drawn) [Compound B48] | 5 | 4 | 5 | 5 | 4 | 1 | 4 | 4 | 5 | 4 | 3 | 1 |
| CCO/C=C\c1cc(N2C(=O)C(Cl)=C(C)C2O)nn1C (stereo not drawn) [Compound B49] | 2 | 0 | 4 | 0 | 3 | 1 | 0 | 0 | 0 | 0 | 0 | 0 |
| CCn1nc(N2C(=O)C(Cl)=C(C)C2O)cc1C(F)(F)F (stereo not drawn) [Compound C1] | 5 | 5 | 5 | 5 | 4 | 3 | 5 | 4 | 5 | 5 | 4 | 4 |
| CCn1nc(N2C(=O)C(Cl)=C(C)C2O)cc1C(C)(C)C (stereo not drawn) [Compound C2] | 5 | 5 | 4 | 5 | 5 | 3 | 4 | 4 | 5 | 4 | 5 | 2 |
